According to PMC7997574, “Lead Optimization of Benzoxazolone Carboxamides as Orally Bioavailable and CNS Penetrant Acid Ceramidase Inhibitors” (Journal of Medicinal Chemistry, 2020):
Values after ≈ are worked out from the molar mass of the structure shown. Where a name gives a salt, the structure may show the parent alone. Read-outs that look alike come from different tables or passages of the source.

Key:
[1] = In vitro plasma stability study; type: in vitro ADME; details: mouse plasma; read-out: m-plasma t1/2
Method: Freshly prepared 10 mM MeCN stock solution of test compound was diluted 50-fold with DMSO/H2O (1:1) and incubated at 37 °C for 2 h with mouse plasma added in 5% DMSO (preheated at 37 °C for 10 min). The final concentration was 2 μM. At each time point (0, 5, 15, 30, 60, and 120 min), 50 μL of incubation mixture was diluted with 200 μL of cold MeCN spiked with 200 nM internal standard followed by centrifugation at 3300 × g for 20 min. The supernatant was further diluted with H2O (1:1) for analysis. The concentration of test compound was quantified by LC/MS/MS on a Waters ACQUITY UPLC/MS TQD system consisting of a TQD MS equipped with an ESI interface. The analyses were run on an ACQUITY UPLC BEH C18 (50 × 2.1 mm ID, particle size 1.7 μm) with a VanGuard BEH C18 precolumn (5 × 2.1 mm ID, particle size 1.7 μm) at 40 °C. For each compound, the appropriate mobile phase was chosen. ESI was applied in positive mode. The response factors, calculated on the basis of the internal standard peak area, were plotted over time. When possible, response vs time profiles were fitted with Prism (GraphPad Software, Inc., USA) to estimate compound t1/2 in plasma. Values are the mean of at least two independent experiments performed in two technical replicates.

[2] = In vitro microsomal stability study; type: in vitro ADME; details: mouse liver microsomes
Method: Freshly prepared 10 mM MeCN stock solution of test compound was preincubated at 37 °C for 15 min with mouse liver microsomes added in 0.1 M Tris HCl buffer (pH 7.4). The final concentration was 4.6 μM. After preincubation, the cofactors (NADPH, G6P, G6PDH, and MgCl2 predissolved in 0.1 M Tris HCl) were added to the incubation mixture, and the incubation was continued at 37 °C for 1 h. At each time point (0, 5, 15, 30, and 60 min), 30 μL of incubation mixture was diluted with 200 μL of cold MeCN spiked with 200 nM internal standard followed by centrifugation at 3300 × g for 15 min. The supernatant was further diluted with H2O (1:1) for analysis. The concentration of the test compound was quantified by LC/MS/MS on a Waters ACQUITY UPLC/MS TQD system consisting of a TQD MS equipped with an ESI interface. The analyses were run on an ACQUITY UPLC BEH C18 (50 × 2.1 mm ID, particle size 1.7 μm) with a VanGuard BEH C18 precolumn (5 × 2.1 mm ID, particle size 1.7 μm) at 40 °C. For each compound, the appropriate mobile phase was chosen. ESI was applied in positive mode. The percentage of test compound remaining at each time point relative to t = 0 was calculated. t1/2 was determined by a one-phase decay equation using a nonlinear regression of compound concentration vs time. Values are the mean of at least two independent experiments performed in two technical replicates.

[3] = Aqueous kinetic solubility assay; type: physicochemical; details: PBS, pH 7.4
Method: The aqueous kinetic solubility was determined from a 10 mM MeCN stock solution of test compound in Phosphate-Buffered Saline (PBS) at pH 7.4. The study was performed by incubation of an aliquot of 10 mM MeCN stock solution in PBS (pH 7.4) at a target concentration of 250 μM. The incubation was carried out under shaking at 25 °C for 1 h followed by centrifugation at 21100 × g for 30 min. The supernatant was analyzed by UPLC/MS for the quantification of the dissolved compound (in μM) by UV at a specific wavelength (215 nm). […] The UPLC/MS analyses were performed on a Waters ACQUITY UPLC/MS system consisting of a single quadrupole detector (SQD) Mass Spectrometer (MS) equipped with an Electrospray Ionization (ESI) interface and a Photodiode Array Detector (PDA). The PDA range was 210–400 nm. ESI in positive mode was used in the mass scan range of 100–650 Da. The analyses were run on an ACQUITY UPLC BEH C18 column (50 × 2.1 mm ID, particle size 1.7 μm) with a VanGuard BEH C18 precolumn (5 × 2.1 mm ID, particle size 1.7 μm), using 10 mM NH4OAc in H2O at pH 5 adjusted with AcOH (A) and 10 mM NH4OAc in MeCN/H2O (95:5) at pH 5 (B) as the mobile phase. Values are reported as mean values of ≥2 experiments performed.

[4] = target: T1, AC (Homo sapiens, UniProt Q13510); test: Fluorogenic hAC assay on hAC-enriched lysate of HEK293 cells; type: biochemical; set-up: expressed in transfected cells
T1 sequence (Q13510 22-395): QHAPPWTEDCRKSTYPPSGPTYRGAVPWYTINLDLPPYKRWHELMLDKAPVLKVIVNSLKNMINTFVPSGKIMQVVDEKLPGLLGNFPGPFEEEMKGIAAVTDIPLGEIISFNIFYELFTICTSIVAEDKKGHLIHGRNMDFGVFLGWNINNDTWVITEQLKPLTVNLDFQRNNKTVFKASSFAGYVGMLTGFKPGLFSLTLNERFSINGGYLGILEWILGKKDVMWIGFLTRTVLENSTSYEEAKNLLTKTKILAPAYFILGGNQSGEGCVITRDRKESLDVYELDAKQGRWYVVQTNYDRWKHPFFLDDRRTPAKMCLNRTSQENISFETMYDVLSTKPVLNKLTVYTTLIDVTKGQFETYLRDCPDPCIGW
Method: HEK293 cells stably expressing hAC were grown in Dulbecco’s modified Eagle medium (DMEM) containing 10% FBS, 1% glutamine, 1 mM sodium pyruvate, and 500 μg mL^–1 G418. Cells were harvested, and pellets were stored at −80 °C until lysosomal-enriched lysate preparation. Cells were suspended in 20 mM Tris HCl (pH 7.5) with 0.32 M sucrose, sonicated, and centrifuged at 800 × g for 30 min at 4 °C. Supernatants were then centrifuged at 12000 × g for 30 min at 4 °C. Pellets were resuspended in PBS (pH 7.4) and subjected to three freeze–thaw cycles at −80 °C. The suspension was finally centrifuged at 105000 × g for 1 h at 4 °C, and protein concentration was measured in the supernatant with the bicinchoninic acid based protein assay. This hAC-enriched preparation allowed us to further optimize the enzymatic assay and to use small amounts of lysate (2 μg per well) at a 5 μM substrate (Rbm14–12) around its KM (KM = 5.0 μM).
The assay was performed in Optiplate 96-well black plates, with each reaction well containing a mixture of 25 mM NaOAc buffer (pH 4.5) and a fixed amount of protein (2 μg) in a volume of 85 μL. After 10 min of preincubation with test compounds (diluted 20× from DMSO stock solutions at different concentrations), the fluorogenic probe was added (diluted 40× from EtOH stock solution, final concentration 5 μM). After 3 h of incubation at 37 °C, reactions were stopped with 50 μL of MeOH and 100 μL of a 2.5 mg mL^–1 NaIO4 fresh solution in 100 mM glycine/NaOH buffer (pH 10.6). The plates were further incubated for 2 h at 37 °C in the dark, and fluorescence intensities were measured at excitation/emission wavelengths of 355/460 nm. Negative control samples consisted of the same incubation mixture in the absence of protein-enriched extracts. Data were plotted as a function of compound concentrations. IC50 values were calculated by nonlinear regression analysis using GraphPad Prism 5 (GraphPad Software Inc., CA, USA) applying a standard slope curve fitting. The reported IC50 values are the mean of at least three independent experiments performed in three technical replicates.

[5] = hAC expressed in HEK-293 cells, read-out: hAC IC50 (μM)±SD
[6] = supplementary csv, read-out: hAC, IC50

Compound | IC50 [4, 5] [µM] | IC50 [4, 6] [µM] | further results
CC(C)CNC(=O)n1c(=O)oc2cc(C3CCCCN3C)ccc21 (racemic) [compound 26, (±)-N-Isobutyl-6-(1-methyl-2-piperidyl)-2-oxo-1,3-benzoxazole-3-carboxamide] | 1.01 ± 0.432 | 1.19 ± 0.435 | half-life at 2 µM [1]: 30 min; half-life at 1 h, 4.6 µM ([2]; pH 7.4, read-out: m-LM t1/2): 15 min; solubility at 1 h [3]: 190 µM (≈ 63 µg/mL)
CC(C)CNC(=O)n1c(=O)oc2cc(C3CCCN(C)C3)ccc21 (racemic) [compound 27, (±)-N-Isobutyl-6-(1-methyl-3-piperidyl)-2-oxo-1,3-benzoxazole-3-carboxamide] | 1.75 ± 0.705 | 1.62 ± 0.649 | half-life at 2 µM [1]: 50 min; m-LM [% at 60 min] ([2]; % remaining at 60 min): 70%; half-life at 4.6 μM ([2]; pH 7.4, read-out: m-LM t1/2): > 60 min; solubility at 1 h [3]: > 250 µM
O=C(NCCOCc1ccccc1)n1c(=O)oc2cc(-c3ccc(F)cc3)ccc21 [2d, N-(2-Benzyloxyethyl)-6-(4-fluorophenyl)-2-oxo-1,3-benzoxazole-3-carboxamide] | – | 4.7 ± 6.04 | –
CCCCCNC(=O)n1c(=O)oc2cc(-c3ccc(F)cc3)ccc21 [2e, 6-(4-Fluorophenyl)-2-oxo-N-pentyl-1,3-benzoxazole-3-carboxamide] | – | – | solubility at 1 h [3]: < 1 µM; IC50 ([4]; read-out: hAC IC50): 0.06 µM
CCOCCNC(=O)n1c(=O)oc2cc(-c3ccc(F)cc3)ccc21 [2f, N-(2-Ethoxyethyl)-6-(4-fluorophenyl)-2-oxo-1,3-benzoxazole-3-carboxamide] | – | 2.3 | –
COCCCNC(=O)n1c(=O)oc2cc(-c3ccc(F)cc3)ccc21 [2g, 6-(4-Fluorophenyl)-N-(3-methoxypropyl)-2-oxo-1,3-benzoxazole-3-carboxamide] | – | 2.6 ± 0.176 | –
O=C1C(=O)N(C(=O)NCCCCc2ccccc2)c2ccccc21 [8c, 2,3-Dioxo-N-(4-phenylbutyl)indoline-1-carboxamide] | > 10 | – | –
O=C1Cc2ccccc2N1C(=O)NCCCCc1ccccc1 [8d, 2-Oxo-N-(4-phenylbutyl)indoline-1-carboxamide] | > 10 | – | –
CN1CCc2oc(=O)n(C(=O)NCCCCc3ccccc3)c2C1 [12c, 5-Methyl-2-oxo-N-(4-phenylbutyl)-6,7-dihydro-4H-oxazolo[4,5-c]pyridine-3-carboxamide Hydrochloride] | – | 0.516 ± 0.165 | –
O=C(NCCCCc1ccccc1)n1c2c(oc1=O)CCN(Cc1ccccc1)C2 [12d, 5-Benzyl-2-oxo-N-(4-phenylbutyl)-6,7-dihydro-4H-oxazolo[4,5-c]pyridine-3-carboxamide] | – | 0.436 ± 0.073 | –
CC(=O)N1CCc2oc(=O)n(C(=O)NCCCCc3ccccc3)c2C1 [12e, 5-Acetyl-2-oxo-N-(4-phenylbutyl)-6,7-dihydro-4H-oxazolo[4,5-c]pyridine-3-carboxamide] | – | 0.293 ± 0.107 | –
CN1CCC(c2ccc3[nH]c(=O)oc3c2)CC1 [21g, 6-(1-Methyl-4-piperidyl)-3H-1,3-benzoxazol-2-one] | – | – | inhibition of hAC ([4]; tested at 1 and 10 μM): not able to inhibit hAC
O=C(NCCCCc1ccccc1)n1c(=O)oc2cc(C3CCCCC3)ccc21 [22a, 6-Cyclohexyl-2-oxo-N-(4-phenylbutyl)-1,3-benzoxazole-3-carboxamide] | 0.089 ± 0.054 | – | –
O=C(NCCCCc1ccccc1)n1c(=O)oc2cc(C3CCOCC3)ccc21 [22b, 2-Oxo-N-(4-phenylbutyl)-6-tetrahydropyran-4-yl-1,3-benzoxazole-3-carboxamide] | 0.068 ± 0.022 | – | –
CCOCCNC(=O)n1c(=O)oc2cc(C3CCN(C)CC3)ccc21 [22l, N-(2-Ethoxyethyl)-6-(1-methyl-4-piperidyl)-2-oxo-1,3-benzoxazole-3-carboxamide] | 1.05 ± 0.312 | – | –
CCC(C)NC(=O)n1c(=O)oc2cc(C3CCN(C)CC3)ccc21 (stereo not shown) [22n, 6-(1-Methyl-4-piperidyl)-2-oxo-N-sec-butyl-1,3-benzoxazole-3-carboxamide] | 2.1 | – | –
O=C(NCCCCc1ccccc1)n1c(=O)oc2cc(N3CCCCC3)ccc21 [23a, 2-Oxo-N-(4-phenylbutyl)-6-piperidin-1-ium-1-yl-1,3-benzoxazole-3-carboxamide Hydrochloride] | 0.08 ± 0.017 | – | –
O=C(NCCCCc1ccccc1)n1c(=O)oc2cc(N3CCOCC3)ccc21 [23b, 6-Morpholino-2-oxo-N-(4-phenylbutyl)-1,3-benzoxazole-3-carboxamide] | 0.192 ± 0.087 | – | –
O=C(NCCCCc1ccccc1)n1c(=O)oc2cc(N3CCS(=O)(=O)CC3)ccc21 [23c, 6-(1,1-Dioxo-1,4-thiazinan-4-yl)-2-oxo-N-(4-phenylbutyl)-1,3-benzoxazole-3-carboxamide] | 0.16 ± 0.014 | – | –
CC(C)N1CCN(c2ccc3c(c2)oc(=O)n3C(=O)NCCCCc2ccccc2)CC1 [23h, 6-(4-Isopropylpiperazin-1-yl)-2-oxo-N-(4-phenylbutyl)-1,3-benzoxazole-3-carboxamide] | 0.211 ± 0.065 | – | –
CC(C)CN1CCN(c2ccc3c(c2)oc(=O)n3C(=O)NCCCCc2ccccc2)CC1 [23i, 6-(4-Isobutylpiperazin-1-Yl)-2-oxo-N-(4-phenylbutyl)-1,3-benzoxazole-3-carboxamide] | 0.127 ± 0.037 | – | –
